Five compounds from BindingDB's records for doi:10.1016/j.bmcl.2018.11.048 (Advinus Therapeutics, 2019) can be followed below.

The first assay has as its target T1, Fatty-acid amide hydrolase 1 (Homo sapiens, UniProt O00519).
T1 sequence (O00519 whole entry): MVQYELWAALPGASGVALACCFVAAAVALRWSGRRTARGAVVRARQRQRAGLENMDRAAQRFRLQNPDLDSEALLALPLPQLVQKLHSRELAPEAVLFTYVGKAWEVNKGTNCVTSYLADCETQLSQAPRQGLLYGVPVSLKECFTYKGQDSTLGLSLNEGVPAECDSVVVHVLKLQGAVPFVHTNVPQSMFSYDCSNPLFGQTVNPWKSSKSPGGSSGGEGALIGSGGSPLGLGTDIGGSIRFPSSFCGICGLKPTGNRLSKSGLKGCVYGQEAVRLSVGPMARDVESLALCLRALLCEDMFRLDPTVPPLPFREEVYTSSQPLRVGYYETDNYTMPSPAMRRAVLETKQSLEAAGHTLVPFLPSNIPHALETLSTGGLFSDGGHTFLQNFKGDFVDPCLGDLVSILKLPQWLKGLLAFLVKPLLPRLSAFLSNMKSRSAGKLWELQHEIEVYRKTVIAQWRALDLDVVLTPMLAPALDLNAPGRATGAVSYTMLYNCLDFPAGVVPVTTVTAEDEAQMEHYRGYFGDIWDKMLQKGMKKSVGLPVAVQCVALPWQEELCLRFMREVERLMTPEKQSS
The assay is described as follows: Inhibition of human transmembrane domain deficient FFAH expressed in Escherichia coli using AAMCA as substrate incubated for 1 min measured for 50 mins by fluorescence assay.
Take `CCOC(=O)Cn1nc2c(c1C(C)C)C(c1ccc(Cl)cc1C)N(c1cc(Cl)ccc1C)C2=O` (stereo unspecified) [US9682953, 20.A-1]: the IC50 (commonly the concentration that gives 50% inhibition) amounted to 2.2 nM.

Take `Cc1cc(C(=O)NC2CCC(=Cc3cccc(Oc4ccc(C(F)(F)F)cn4)c3)CC2)cnc1N` (stereo unspecified) [US9682953, 20.A-5]: the IC50 is 3 nM.

`O=C(NC1CCC(=Cc2cccc(Oc3ccc(C(F)(F)F)cn3)c2)CC1)c1cn[nH]c1` (stereo unspecified) [US9682953, 20.A-12] returned an IC50 of 2.6 nM.

Take `O=C(NC1CCC(=Cc2cccc(Oc3ccc(C(F)(F)F)cn3)c2)CC1)c1cnc2[nH]ccc2c1` (stereo unspecified) [US9682953, 20.A-13]: the IC50 turned out to be 2.2 nM.

In turn, `O=C(NC1CCC(=Cc2cccc(Oc3ccc(C(F)(F)F)cn3)c2)CC1)c1cncnc1` (stereo unspecified) [US9682953, 20.A-20] registered a concentration for half-maximal inhibition (IC50) of 2.6 nM.

In another assay the target is T2, Fatty-acid amide hydrolase 1 [30-579] (Rattus norvegicus, UniProt P97612).
T2 construct: 30-579
T2 sequence (P97612 whole entry): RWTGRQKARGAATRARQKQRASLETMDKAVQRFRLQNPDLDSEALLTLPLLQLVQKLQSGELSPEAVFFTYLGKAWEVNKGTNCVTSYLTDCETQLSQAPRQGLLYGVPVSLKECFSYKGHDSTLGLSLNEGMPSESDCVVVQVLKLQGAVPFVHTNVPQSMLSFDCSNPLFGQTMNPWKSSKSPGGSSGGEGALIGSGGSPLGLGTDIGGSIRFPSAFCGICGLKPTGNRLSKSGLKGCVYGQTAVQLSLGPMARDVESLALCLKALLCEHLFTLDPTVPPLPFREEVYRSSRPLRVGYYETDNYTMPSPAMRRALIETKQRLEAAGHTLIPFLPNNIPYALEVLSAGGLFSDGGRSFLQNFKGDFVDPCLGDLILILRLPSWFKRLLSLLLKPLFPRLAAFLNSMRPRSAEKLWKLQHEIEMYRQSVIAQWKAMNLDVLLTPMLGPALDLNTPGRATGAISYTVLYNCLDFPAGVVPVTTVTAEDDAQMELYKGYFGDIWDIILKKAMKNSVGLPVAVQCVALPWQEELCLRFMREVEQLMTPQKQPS
Briefly: Inhibition of rat FFAH expressed in Escherichia coli using AAMCA as substrate incubated for 1 min measured for 50 mins by fluorescence assay.
Regarding `Cc1cc(C(=O)NC2CCC(=Cc3cccc(Oc4ccc(C(F)(F)F)cn4)c3)CC2)cnc1N` (stereo unspecified) [US9682953, 20.A-5], inhibition was half-maximal at 29 nM (IC50).
